Measurements published in paper PMC7224301, “Methodology for the identification of small molecule inhibitors of the Fanconi Anaemia ubiquitin E3 ligase complex” (Scientific Reports, 2020).

Experiments:
[1] = tested on: FANCD2 foci in SUM149 parental cells; experiment: Nuclear FANCD2 foci formation (immunofluorescence), SUM149 parental; format: cell-based, human; settings: for FANCD2 foci: 2 days exposure, DMSO = 3.80; for effect on FANCD2 foci formation: SUM149 parental cells (BRCA1-deficient), 1 µM
Description: FANCD2 foci formation is often used as an indicator of FA core complex functionality[40],[43]. Therefore, we selected 11 compounds to test at 1 µM in 384-well format for their ability to reduce FANCD2 foci formation in SUM149 parental BRCA1-deficient cells. […] An inhibitor of the FA pathway could exploit this dependency of FANCD2 activity to synergise with PARP inhibitors.
Nuclear FANCD2 foci were measured in high throughput by quantitating DAPI stained cell nuclei of either SUM149 or SUM149 B1.S* cell lines using automated confocal imaging (CX7 LZR, ThermoFisher Scientific). […] FANCD2 foci were detected with immunofluorescence using rabbit anti-human FANCD2 (abcam, ab108928).

[2] = tested on: T1, FA core complex-mediated FANCD2 mono-ubiquitination; experiment: FANCD2 mono-ubiquitination proximity assay (AlphaScreen), inhibitor format; format: biochemical, human proteins; Xenopus laevis FANCD2 and FANCI; settings: at 0.3 µM
T1 construct: made in house; host or cells: High-Five insect cells (FANC-B-L-100, FANCD2-FANCI); E. coli BL21 (DE3) (UBE2T); UBE1 and ubiquitin from Boston Biochem
T1 sequence (Q9NW38 whole entry): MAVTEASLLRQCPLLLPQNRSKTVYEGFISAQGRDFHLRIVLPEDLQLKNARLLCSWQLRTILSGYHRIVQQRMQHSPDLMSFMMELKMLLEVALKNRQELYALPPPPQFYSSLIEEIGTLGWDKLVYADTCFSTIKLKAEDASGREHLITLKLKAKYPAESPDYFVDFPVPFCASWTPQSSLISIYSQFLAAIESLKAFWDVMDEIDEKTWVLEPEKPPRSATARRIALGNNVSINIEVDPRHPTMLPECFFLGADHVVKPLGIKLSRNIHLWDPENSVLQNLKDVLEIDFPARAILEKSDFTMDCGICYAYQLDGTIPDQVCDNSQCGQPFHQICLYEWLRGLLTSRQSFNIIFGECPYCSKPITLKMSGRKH
T1 sequence (Q8NB91 whole entry, further chain): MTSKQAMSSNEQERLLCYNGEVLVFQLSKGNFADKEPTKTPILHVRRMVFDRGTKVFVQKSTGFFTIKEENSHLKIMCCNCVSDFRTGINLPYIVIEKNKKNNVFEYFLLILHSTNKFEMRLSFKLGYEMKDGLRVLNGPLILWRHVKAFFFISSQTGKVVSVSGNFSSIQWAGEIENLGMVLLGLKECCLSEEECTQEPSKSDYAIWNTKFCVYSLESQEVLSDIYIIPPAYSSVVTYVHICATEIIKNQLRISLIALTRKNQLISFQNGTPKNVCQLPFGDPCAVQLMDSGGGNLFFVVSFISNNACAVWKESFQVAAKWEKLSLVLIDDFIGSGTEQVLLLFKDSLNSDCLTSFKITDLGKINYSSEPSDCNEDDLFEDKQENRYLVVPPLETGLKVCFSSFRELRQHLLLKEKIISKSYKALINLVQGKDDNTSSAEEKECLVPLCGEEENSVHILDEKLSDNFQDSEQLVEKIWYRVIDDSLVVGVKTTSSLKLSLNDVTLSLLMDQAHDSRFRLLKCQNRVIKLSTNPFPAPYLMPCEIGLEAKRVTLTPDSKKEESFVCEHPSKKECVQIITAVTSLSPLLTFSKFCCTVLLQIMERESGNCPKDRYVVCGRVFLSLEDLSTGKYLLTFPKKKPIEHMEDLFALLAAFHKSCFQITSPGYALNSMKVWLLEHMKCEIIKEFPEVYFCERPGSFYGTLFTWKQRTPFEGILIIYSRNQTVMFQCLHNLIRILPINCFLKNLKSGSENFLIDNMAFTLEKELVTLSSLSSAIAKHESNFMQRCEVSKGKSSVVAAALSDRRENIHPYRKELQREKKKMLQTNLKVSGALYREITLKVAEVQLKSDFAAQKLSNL
T1 sequence (Q0VG06 whole entry, further chain): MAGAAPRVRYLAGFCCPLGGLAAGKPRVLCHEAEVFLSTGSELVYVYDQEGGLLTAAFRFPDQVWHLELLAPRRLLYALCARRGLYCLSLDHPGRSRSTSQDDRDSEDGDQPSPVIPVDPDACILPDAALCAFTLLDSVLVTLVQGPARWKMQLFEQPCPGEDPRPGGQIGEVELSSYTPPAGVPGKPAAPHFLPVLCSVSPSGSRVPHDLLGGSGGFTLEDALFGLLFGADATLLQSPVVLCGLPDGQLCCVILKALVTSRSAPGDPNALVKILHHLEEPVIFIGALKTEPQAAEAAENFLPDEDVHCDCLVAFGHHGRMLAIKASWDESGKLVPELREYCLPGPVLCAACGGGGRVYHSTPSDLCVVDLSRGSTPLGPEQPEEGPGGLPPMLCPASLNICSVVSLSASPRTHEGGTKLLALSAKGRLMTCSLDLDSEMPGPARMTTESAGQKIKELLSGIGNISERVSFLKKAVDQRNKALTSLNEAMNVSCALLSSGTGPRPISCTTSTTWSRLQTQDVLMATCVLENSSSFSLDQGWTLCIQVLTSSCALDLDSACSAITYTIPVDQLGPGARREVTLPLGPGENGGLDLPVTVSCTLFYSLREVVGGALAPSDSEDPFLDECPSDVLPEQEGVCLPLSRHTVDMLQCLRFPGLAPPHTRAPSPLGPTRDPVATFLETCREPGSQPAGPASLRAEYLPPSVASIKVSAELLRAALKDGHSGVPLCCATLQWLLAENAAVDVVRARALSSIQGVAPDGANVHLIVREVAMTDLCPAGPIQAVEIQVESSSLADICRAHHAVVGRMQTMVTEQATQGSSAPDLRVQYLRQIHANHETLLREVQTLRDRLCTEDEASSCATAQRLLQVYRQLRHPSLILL
T1 sequence (Q00597 whole entry, further chain): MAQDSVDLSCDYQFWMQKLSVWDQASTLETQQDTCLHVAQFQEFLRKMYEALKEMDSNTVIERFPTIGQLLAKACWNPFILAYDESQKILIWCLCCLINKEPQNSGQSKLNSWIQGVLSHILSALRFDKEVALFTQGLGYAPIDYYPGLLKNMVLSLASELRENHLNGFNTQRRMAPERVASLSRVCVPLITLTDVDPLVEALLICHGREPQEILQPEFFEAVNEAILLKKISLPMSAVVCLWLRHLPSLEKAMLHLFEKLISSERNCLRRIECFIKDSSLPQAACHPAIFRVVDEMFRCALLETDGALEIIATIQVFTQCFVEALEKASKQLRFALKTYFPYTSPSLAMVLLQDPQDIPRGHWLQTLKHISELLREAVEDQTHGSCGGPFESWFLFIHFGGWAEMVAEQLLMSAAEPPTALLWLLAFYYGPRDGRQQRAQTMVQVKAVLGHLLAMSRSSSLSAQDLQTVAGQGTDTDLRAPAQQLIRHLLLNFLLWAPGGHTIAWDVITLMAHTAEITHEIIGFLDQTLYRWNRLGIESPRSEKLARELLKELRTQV
T1 sequence (Q9HB96 whole entry, further chain): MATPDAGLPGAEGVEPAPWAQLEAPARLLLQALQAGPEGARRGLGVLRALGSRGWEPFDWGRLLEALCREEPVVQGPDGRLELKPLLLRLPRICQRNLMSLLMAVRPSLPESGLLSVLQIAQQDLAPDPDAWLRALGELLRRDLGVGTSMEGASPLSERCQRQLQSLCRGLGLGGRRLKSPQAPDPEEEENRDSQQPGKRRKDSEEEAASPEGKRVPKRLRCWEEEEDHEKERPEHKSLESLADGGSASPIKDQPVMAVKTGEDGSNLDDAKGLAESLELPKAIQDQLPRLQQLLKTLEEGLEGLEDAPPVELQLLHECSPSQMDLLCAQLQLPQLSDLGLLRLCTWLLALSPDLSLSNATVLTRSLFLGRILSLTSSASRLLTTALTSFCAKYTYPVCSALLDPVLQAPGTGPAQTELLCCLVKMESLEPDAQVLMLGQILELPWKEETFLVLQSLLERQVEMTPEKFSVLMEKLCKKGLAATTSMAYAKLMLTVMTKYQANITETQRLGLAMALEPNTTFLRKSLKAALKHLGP
T1 sequence (Q9NPI8 whole entry, further chain): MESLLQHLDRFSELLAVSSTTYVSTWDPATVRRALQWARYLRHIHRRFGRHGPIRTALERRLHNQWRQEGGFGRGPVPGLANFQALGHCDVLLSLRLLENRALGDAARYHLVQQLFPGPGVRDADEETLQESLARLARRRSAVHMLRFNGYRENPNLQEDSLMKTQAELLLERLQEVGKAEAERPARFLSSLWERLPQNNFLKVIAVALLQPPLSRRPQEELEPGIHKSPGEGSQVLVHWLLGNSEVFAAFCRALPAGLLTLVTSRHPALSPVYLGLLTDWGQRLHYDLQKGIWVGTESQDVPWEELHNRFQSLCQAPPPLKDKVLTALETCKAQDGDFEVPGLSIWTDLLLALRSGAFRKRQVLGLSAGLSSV
Text: The inhibitor assay includes recombinant ubiquitin, ubiquitin activating enzyme, FANCT, FANC-B-L-100, FANC-C-E-F, FANCI, FANCD2 and dsDNA[41] (Fig. 2a). For the activator assay, the activity stimulating adaptor complex FANC-C-E-F is omitted to give a baseline FANCD2-ubiquitination signal which enables a greater dynamic range to detect activation of the E3 ligase sub complex FANCB-L-100 (Fig. 2b,c). […] The gel-based FANCD2 mono-ubiquitination assay that we published previously[26] was modified to give a chemi-luminescent readout using a proximity assay (Materials and methods) (Fig. 1b). The purified proteins in the mono-ubiquitination assays used for the high-throughput screen are biotinylated-ubiquitin (b-ubiquitin), His-UBE1, FANCT, Flag-FANCB, FANCL, FAAP100, MBP-FANCC, FANCE, FANCF, GST-XlFANCD2 and Flag-XlFANCI. The assay was calibrated for maximal signal to background and for an optimal dynamic range within which small molecule modulators could be detected in a 384-well plate format. […]
For high-throughput screening, FANCD2 mono-ubiquitination was measured with a proximity assay (AlphaScreen, Perkin Elmer). […] The 520–620 nm signal provides a read out of FANCD2 mono-ubiquitination. […] All protein concentrations in the assay were determined by titration of each component for optimal activity (Fig. 2). […]

[3] = tested on: SUM149.B1.S* cells; experiment: Synthetic lethal cell assay (SRB cell viability), BRCA1-proficient control cells; format: cell-based, human; settings: SUM149.B1.S* (BRCA1 reversion), 10 µM, 72 h
Text: (§1) Therefore, we tested our preliminary inhibitors for the ability to kill BRCA1-deficient cells preferentially over isogenic BRCA1-proficient controls. To achieve this we exploited the triple negative breast cancer cell line SUM149[48] with a homozygous loss of function mutation in BRCA1 (c.2288delT, p.N723fsX13) and the daughter cell line, SUM149.B1.S* with one allele containing a secondary restoration of function mutation (an 80-bp BRCA1 deletion, c.[2288delT;2293del80])[49]. Twenty-five compounds were tested at 10 µM for preferential cytotoxicity in the BRCA1-deficient SUM149 (Fig. 5).
(§2) SUM149 parental cell line and SUM149 B1.S* cell lines[49] were seeded in a 96-well plate with 3000 cells per well. After 24 h, media was removed, and the cells were treated with 10 µM of each compound in triplicate in antibiotic free media and left for 72 h. Cell were fixed with 1% trichloroacetic acid and stained with sulphorhodamine B (SRB). Absorbance of wells were read at 550 nm.

[4] = tested on: SUM149 cells; experiment: Synthetic lethal cell assay (SRB cell viability), BRCA1-deficient cells; format: cell-based, human; settings: 10 µM, 72 h
Text: as §1, §2

SMILES | FANCD2 foci ([1]; SUM149 parental cells) | effect on FANCD2 foci formation [1] | other results
CO[C@@]12[C@H](COC(N)=O)C3=C(C(=O)C(C)=C(N)C3=O)N1C[C@@H]1N[C@@H]12 [MMC, mitomycin C] | 5.45 |  | 
NS(=O)(=O)OC[C@H]1C[C@@H](Nc2ccnc3cc(-c4cccc(SC(F)(F)F)c4)nn23)[C@H](O)[C@@H]1O [TAK243] | 0.28 |  | inhibition of the FANCD2 mono-ubiquitination reaction [2]: > 50%; toxicity in the foci assay ([1]; SUM149 parental cells): highly toxic
NC(=O)c1cccc2cn(-c3ccc([C@@H]4CCCNC4)cc3)nc12 [niraparib] |  | increased FANCD2 foci formation | 
O=C(c1cc(Cc2n[nH]c(=O)c3ccccc23)ccc1F)N1CCN(C(=O)C2CC2)CC1 [olaparib] |  | increased FANCD2 foci formation | survival [3]: 78.1%; survival [4]: 33.3%
CNCc1ccc(-c2[nH]c3cc(F)cc4c3c2CCNC4=O)cc1 [rucaparib] |  | increased FANCD2 foci formation | 
C[C@]1(c2nc3c(C(N)=O)cccc3[nH]2)CCCN1 [veliparib] |  | increased FANCD2 foci formation | 
